Data on one compound can be found in patent US8476448B2, “Solid form of 4-[[(6-chloropyridin-3-yl)methyl](2,2-difluoroethyl)amino]furan-2(5H)-one” (Bayer Cropscience AG, priority 2009, dated 2013).

This series is described as follows: Stability of the novel solid form on prolonged storage. The format is physicochemical.

Turning to `O=C1C=C(N(Cc2ccc(Cl)nc2)CC(F)F)CO1` [novel solid form, 4-[[(6-chloropyridin-3-yl)methyl](2,2-difluoroethyl)amino]furan-2(5H)-one], the “thermodynamic stability / conversion into another form” value was “not converted into another form”.
